Measured values as given in US20200289522A1 (Shionogi & Co., Ltd., priority 2019, published 2020).
Read-outs that look alike come from different tables or passages of the source.

Tests used:
[1] = Plasma concentration after oral administration of prodrug Compound II-6 to rats under non-fasting conditions; type: in vivo
Text: FIGS. 1 and 2 show a result of measuring the plasma concentration of Compound III and
Compound II-6, respectively, after oral administration of prodrug Compound II-6 to rats under non-fasting conditions.

[2] = test system: type B influenza virus; type: in vivo, human; settings: for median time to improvement of influenza symptoms: BXM single dose 40/80 mg, oseltamivir 75 mg twice daily for 5 days
[3] = test system: influenza virus; type: in vivo, human

COC(=O)OCOc1c2n(ccc1=O)N([C@@H]1c3ccccc3SCc3c1ccc(F)c3F)[C@@H]1COCCN1C2=O [II-6, Baloxavir marboxil]
concentration of Compound II-6 in plasma ([1]; non-fasting, oral II-6 0.3, 1, 3 and 10 mg/kg, all time points 0.25 h to 24 h, below limit of quantification): < 0.500 ng/mL
conversion of prodrug to Compound III in vivo after administration ([1]; oral administration): metabolized promptly to Compound III

CCOC(=O)C1=C[C@@H](OC(CC)CC)[C@H](NC(C)=O)[C@@H](N)C1 [oseltamivir, reference compound]
median time to improvement of influenza symptoms ([2]; patients infected with type B influenza virus): 101.6 h

Baloxavir marboxil [II-6]
primary endpoint (time to improvement of influenza symptoms) compared with placebo ([3]; BXM 40 or 80 mg single oral dose): statistically significant improvement
change from baseline in an influenza virus titer [log 10(TCID50/mL)] by time ([3]; by day 2, vs placebo and oseltamivir): statistically significantly superior to placebo and oseltamivir
Difference between BXM and placebo in Time to Improvement of Influenza Symptoms ([3]; difference of medians, generalized Wilcoxon test p-value <0.0001): −29.1
Time to Improvement of Influenza Symptoms ([3]; median, BXM 40/80 mg single oral dose by body weight, N = 385, ITTI population): 73.2
incidence of influenza-related complication: bronchitis ([3]; vs placebo): statistically signicantly superior to placebo
incidence of influenza-related complication: sinusitis ([3]; vs placebo): statistically signicantly superior to placebo
time to cessation of viral shedding by a virus titer ([3]; vs placebo and oseltamivir): statistically significantly superior to placebo and oseltamivir
incidence of influenza-related complications, any complications ([3]; vs placebo, Fisher's exact test): statistically significantly superior to placebo
median time to improvement of influenza symptoms ([2]; […]): 74.6 h
change from baseline in an influenza virus titer [log 10(TCID50/mL)] by time, type B virus ([2]; […], by day 2, vs placebo and oseltamivir): statistically significantly superior to placebo and oseltamivir
median difference in time to improvement of influenza symptoms, BXM vs placebo ([2]; type B influenza virus, generalized Wilcoxon test p-value=0.0138): -26.0 h
median difference in time to improvement of influenza symptoms, BXM vs oseltamivir ([2]; type B influenza virus, generalized Wilcoxon test p-value=0.0251): -27.1 h
